Literature values in patent US5320960A, “Method of preparing solution enriched in xylanase using low molecular weight alcohol, organic salt and inorganic salt” (Genencor International, Inc., priority 1992, dated 1994).

Target: β-Glucosidase (BG) components of fungal cellulase
Conditions: competitive inhibition; read-out: Ki (glucose)

In the case of `OC[C@H]1OC(O)[C@H](O)[C@@H](O)[C@@H]1O` (stereo partly shown) [glucose], the Ki is given as ~1000 µM.
